This is an account of results in US20090170872A1, “Compounds and Their Pharmaceutical Use” (Orchid Research Laboratories Limited, priority 2005, published 2009).

One data set relates to serum TNF-α production. Put plainly: In-vivo TNF-α inhibition assay (LPS-induced serum TNF-α in mice). As to conditions: male Swiss albino mice, oral, serum 90 minutes after LPS challenge. How it is done:
TNF-α inhibitory activity is assessed by in-vivo inhibition of serum TNF-α production in mice. This method is used to assess the inhibitory actions of compounds, on TNF-[…] production in mouse (Griswold et al J Pharmacol Exp Ther 287,705, 1998, Garcia et al, Histol Histopathol 5(1), 43, 1990, and Victor et al, Physiol Res 52,789, 2003). Male Swiss albino mice with body weights equivalent within each group are selected. The animals are fasted for eighteen hours with free access to water. The control group receives only LPS and the drug treatment group receives LPS and the test compound. At the start of the experiment, the drug is administered orally. Thirty minutes later, the animals are given intraperitoneal injection with lipo-polysaccharide (LPS). Blood samples are withdrawn 90 minutes after the LPS challenge, which is the time point of maximal elevation of serum TNF-α activity. Blood was centrifuged for 10 minutes at 4° C. Serum samples were assayed for TNF-[…] levels using Mouse ELISA kit. The Percent Inhibition of TNF-α production is determined by comparison with LPS-treated and LPS/drug treated groups.

For the next data set, the target named is T1, COX-2 (Homo sapiens, UniProt P35354).
T1 sequence (P35354 18-604): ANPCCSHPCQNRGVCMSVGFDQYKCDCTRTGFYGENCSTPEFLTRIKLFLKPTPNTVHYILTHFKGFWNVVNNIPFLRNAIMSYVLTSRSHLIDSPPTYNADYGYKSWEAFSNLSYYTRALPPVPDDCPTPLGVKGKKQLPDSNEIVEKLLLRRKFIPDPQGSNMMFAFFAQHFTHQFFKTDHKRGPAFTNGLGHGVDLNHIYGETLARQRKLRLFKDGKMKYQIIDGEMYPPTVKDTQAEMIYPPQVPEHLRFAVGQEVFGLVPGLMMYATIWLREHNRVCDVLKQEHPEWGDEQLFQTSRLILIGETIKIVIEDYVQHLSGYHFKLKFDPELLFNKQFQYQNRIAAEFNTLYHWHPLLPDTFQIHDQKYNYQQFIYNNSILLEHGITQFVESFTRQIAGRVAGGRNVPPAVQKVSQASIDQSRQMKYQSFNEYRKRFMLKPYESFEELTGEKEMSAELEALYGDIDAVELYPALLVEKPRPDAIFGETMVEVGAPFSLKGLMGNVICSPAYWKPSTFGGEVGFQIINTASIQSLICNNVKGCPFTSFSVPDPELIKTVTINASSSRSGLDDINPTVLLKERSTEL
Put plainly: COX-2 enzyme based assay (purified recombinant enzyme, prostaglandin EIA). It is filed as biochemical. How it is done: (§1) COX-1 and COX-2 enzyme based assays were carried out to check the inhibitory potential of test compounds on the production of prostaglandin by purified recombinant COX-1/COX-2 enzyme (Proc. Nat. Acad. Sci. USA, 88, 2692-2696, 1991; J. Clin. Immunoassay 15, 116-120, 1992) In this assay, the potential of the test compound to inhibit the production of prostaglandin's either by COX-1 or COX-2 from arachidonic acid (substrate) was measured. This was an enzyme based in-vitro assay to evaluate selective COX inhibition with good reproducibility.
(§2) Arachidonic acid was converted to PGH2 (Intermediate product) by COX1/COX-2 in the presence or absence of the test compound. The reaction was carried out at 37° C. and after 2 minutes it was stopped by adding 1M HCl. The intermediate product PGH2 was converted to a stable prostanoid product PGF2α by SnCl2 reduction. The amount of PGF2α produced in the reaction was inversely proportional to the COX inhibitory potential of the test compound. The prostanoid product was quantified via enzyme immunoassay (EIA) using a broadly specific antibody that binds to all the major forms of prostaglandin, using Cayman ELISA kit as per the procedure outlined by the manufacturer (Cayman Chemicals, Ann Arbor, USA).

Another data set deals with IL-6. Kind of data set: IL-6 production in LPS-stimulated human whole blood (ELISA). It is filed as cell-based. As to conditions: LPS 4 hours, read-out: % IL-6 Inhibitory Activity (hPBMC). How it is done: This assay determines the effect of test compounds on the production of IL-6 from human whole blood. Compounds are tested for their ability to downregulate the production of IL-6 in activated whole blood. The test compounds are pre-incubated for 15 minutes at 37° C. and then stimulated with Lipopolysaccharide (Salmonella abortus equi, 1 µg/ml) for 4 hours at 37° C. in 5% CO2. The levels of IL-6 are estimated using Enzyme linked Immunosorbent assay performed in a 96 well format as per the procedure of the manufacturer. (Cayman Chemical, Ann Arbor, USA).

For the next data set, the system named is TNF-α. Put plainly: TNF-α production in LPS-stimulated human whole blood (ELISA). To be noted: LPS 4 hours, read-out: % TNF-α Inhibitory Activity in (hPBMC). Type of data set: cell-based. How it is done:
This assay determines the effect of the test compounds on the production of TNF-α in human whole blood. TNF-α assay is carried out as described by Armin Hatzelmann and Christian Schudt (J Pharm Exp Ther 297, 261, 2001). Compounds are tested for their ability to inhibit the activity of TNF-α in human whole blood. The test compounds are pre-incubated for 15 minutes at 37° C. and then stimulated with Lipopolysaccharide (Salmonella abortus equi, 1 µg/ml) for 4 hours at 37° C. in 5% CO2. The levels of TNF-α are estimated using Enzyme linked Immunosorbent assay performed in a 96 well format as per the procedure of the manufacturer (Cayman Chemical, Ann Arbor, USA).

In the next data set the target is COX-1 (Homo sapiens, UniProt P23219). Kind of data set: COX-1 enzyme based assay (purified recombinant enzyme, prostaglandin EIA). Type of data set: biochemical. How it is done: as §1, §2
COX-1, sequence (P23219 24-599): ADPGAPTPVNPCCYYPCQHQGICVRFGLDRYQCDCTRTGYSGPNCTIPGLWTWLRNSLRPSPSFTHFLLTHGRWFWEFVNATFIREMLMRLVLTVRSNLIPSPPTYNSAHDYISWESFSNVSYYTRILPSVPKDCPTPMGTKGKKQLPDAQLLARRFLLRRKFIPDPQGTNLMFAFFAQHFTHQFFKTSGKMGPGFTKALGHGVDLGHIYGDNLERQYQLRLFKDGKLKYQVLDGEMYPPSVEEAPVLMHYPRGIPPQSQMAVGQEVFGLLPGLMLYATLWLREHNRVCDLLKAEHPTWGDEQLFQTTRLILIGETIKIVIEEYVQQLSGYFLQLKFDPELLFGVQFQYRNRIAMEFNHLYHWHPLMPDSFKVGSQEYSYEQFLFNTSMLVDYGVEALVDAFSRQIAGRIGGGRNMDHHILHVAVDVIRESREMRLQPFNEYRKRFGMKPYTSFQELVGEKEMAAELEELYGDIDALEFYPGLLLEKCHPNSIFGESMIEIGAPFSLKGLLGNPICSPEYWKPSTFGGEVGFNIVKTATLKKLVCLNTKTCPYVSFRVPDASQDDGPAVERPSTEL

`Cc1nccn1CC1CCc2c(c3ccccc3n2C)/C1=N/Oc1ccc(Br)cn1` (stereo not shown) [Example 17, (4E)-9-methyl-3-[(2-methyl-1H-imidazol-1-yl)methyl]-1,2,3,9-tetrahydro-4H-carbazol-4-one O-[5-bromo-pyridin-2-yl]oxime]: the “% TNF-α inhibition in in vivo sepsis in mice” value with serum TNF-α production worked out at 82.69%. At COX-2, the inhibition at 1 µM is 41.5% and the inhibition at 10 µM was 42.7%.

For the compound `Cc1nccn1CC1CCc2c(c3ccccc3n2C)/C1=N/OC(=O)c1ccc(F)cc1` (stereo not shown) [Example 38, (4E)-9-methyl-3-[(2-methyl-1H-imidazol-1-yl)methyl]-1,2,3,9-tetrahydro-4H-carbazol-4-one O-4-fluorobenzoyloxime], the melting point lay within 192 to 200 °C. In the data set on IL-6, the inhibition at 1 µM is 19.1% and the inhibition at 10 µM came to 26%.

The compound `Cc1nccn1CC1CCc2c(c3ccccc3n2C)/C1=N/OC(=O)C1CCCCC1` (stereo not shown) [Example 42, (4E)-9-methyl-3-[(2-methyl-1H-imidazol-1-yl)methyl]-1,2,3,9-tetrahydro-4H-carbazol-4-one O-cyclohexanoyloxime] yielded a melting point of 98 to 106 °C. In the data set on IL-6, the inhibition at 1 µM was 7.96% and the inhibition at 10 µM is 18.5%.

Compound `Cc1nccn1CC1CCc2c(c3ccccc3n2C)/C1=N/OC(=O)c1ccc(C#N)cc1` (stereo not shown) [Example 44, (4E)-9-methyl-3-[(2-methyl-1H-imidazol-1-yl)methyl]-1,2,3,9-tetrahydro-4H-carbazol-4-one O-4-cyanobenzoyloxime] showed a melting point of 178 to 180 °C. Besides, in the data set on TNF-α, the inhibition at 1 µM amounted to 23.5% and the inhibition at 10 µM is 45.6%. Moreover, in the data set on IL-6, the inhibition at 1 µM amounted to 13.2% and the inhibition at 10 µM was found to be 22.7%.

Take `CCc1ccc(C(=O)O/N=C2/c3c(n(C)c4ccccc34)CCC2Cn2ccnc2C)cc1` (stereo not shown) [Example 41, (4E)-9-methyl-3-[(2-methyl-1H-imidazol-1-yl)methyl]-1,2,3,9-tetrahydro-4H-carbazol-4-one O-4-ethylbenzoyloxime]: the melting point is 175 to 178 °C. Besides, in the data set with IL-6, the inhibition at 1 µM turned out to be 7.63% and the inhibition at 10 µM was 3.09%.

In turn, `Cc1nccn1CC1CCc2c(c3ccccc3n2C)/C1=N/OC(=O)c1cccc(C#N)c1` (stereo not shown) [Example 65, (4E)-9-methyl-3-[(2-methyl-1H-imidazol-1-yl)methyl]-1,2,3,9-tetrahydro-4H-carbazol-4-one O-3-cyanobenzoyloxime] registered a melting point of 160 to 166 °C. In addition, in the data set with IL-6, the inhibition at 1 µM is 13.7% and the inhibition at 10 µM is 30.6%.

Consider `Cc1nccn1CC1CCc2c(c3ccccc3n2C)/C1=N/OC(=O)c1ccccc1Cl` (stereo not shown) [Example 37, (4E)-9-methyl-3-[(2-methyl-1H-imidazol-1-yl)methyl]-1,2,3,9-tetrahydro-4H-carbazol-4-one O-2-chlorobenzoyloxime], for which the melting point is 111 to 116 °C. In the data set on TNF-α, the inhibition at 1 µM is 14.5% and the inhibition at 10 µM came out at 42.1%. Further, in the data set with IL-6, the inhibition at 1 µM amounted to 21.1% and the inhibition at 10 µM turned out to be 32.2%.

For the compound `Cc1nccn1CC1CCc2c(c3ccccc3n2C)/C1=N/OC(=O)c1cccc(Cl)n1` (stereo not shown) [Example 40, (4E)-9-methyl-3-[(2-methyl-1H-imidazol-1-yl)methyl]-1,2,3,9-tetrahydro-4H-carbazol-4-one O-6-chloropyridinoyloxime], the melting point was in the range of 170 to 175 °C. In the data set on IL-6, the inhibition at 1 µM was 20.5% and the inhibition at 10 µM turned out to be 21.3%.

Turning to `Cc1nccn1CC1CCc2c(c3ccccc3n2C)/C1=N/OC(=O)c1ccc(Br)s1` (stereo not shown) [Example 62, (4E)-9-methyl-3-[(2-methyl-1H-imidazol-1-yl)methyl]-1,2,3,9-tetrahydro-4H-carbazol-4-one O-[(5-bromothien-2-yl)carbonyl]oxime], the “% TNF-α inhibition in in vivo sepsis in mice” value in the data set with serum TNF-α production was 86.10%. Also, the inhibition at 10 µM on COX-1 came to 16.4%. For the same compound, at COX-2, the inhibition at 1 µM turned out to be 42% and the inhibition at 10 µM was 36.5%.

`Cc1nccn1CC1CCc2c(c3ccccc3n2C)/C1=N/OC(=O)c1ccccc1Br` (stereo not shown) [Example 39, (4E)-9-methyl-3-[(2-methyl-1H-imidazol-1-yl)methyl]-1,2,3,9-tetrahydro-4H-carbazol-4-one O-2-bromobenzoyloxime]: the melting point lay in the range of 108 to 112 °C. In the data set with TNF-α, the inhibition at 1 µM was found to be 26.1% and the inhibition at 10 µM was 45.8%. For the same compound, in the data set with IL-6, the inhibition at 1 µM is 28.5% and the inhibition at 10 µM turned out to be 19.1%.

`COc1cc(O/N=C2/c3c(n(C)c4ccccc34)CCC2Cn2ccnc2C)nc(OC)n1` (stereo not shown) [Example 20, (4E)-9-methyl-3-[(2-methyl-1H-imidazol-1-yl)methyl]-1,2,3,9-tetrahydro-4H-carbazol-4-one O-(2,6-dimethoxypyrimidin-4-yl)oxime]: the inhibition at 10 µM at COX-1 amounted to 39.1%. On COX-2, the inhibition at 1 µM came to 32.7% and the inhibition at 10 µM is 34.9%.

`Cc1nccn1CC1CCc2c(c3ccccc3n2C)/C1=N/Oc1ccc(C(F)(F)F)cn1` (stereo not shown) [Example 21, (4E)-9-methyl-3-[(2-methyl-1H-imidazol-1-yl)methyl]-1,2,3,9-tetrahydro-4H-carbazol-4-one O-[5-trifluoromethyl-pyridin-2-yl]oxime]: at COX-2, the inhibition at 1 µM amounted to 23% and the inhibition at 10 µM amounted to 23.6%.

As to `CCO/N=C1/c2c(n(C)c3ccccc23)CCC1Cn1ccnc1C` (stereo not shown) [Example 3, (4E)-9-methyl-3-[(2-methyl-1H-imidazol-1-yl)methyl]-1,2,3,9-tetrahydro-4H-carbazol-4-one O-ethyloxime], the inhibition at 1 µM in the data set on TNF-α is 3.42%; in the data set on IL-6, 13.1%. The inhibition at 10 µM in the data set with TNF-α turned out to be 26.9%; with IL-6, 17.7%.
